Results: paper PMC8037310, “Thrombin-Derived Peptides Potentiate the Activity of Gram-Positive-Specific Antibiotics against Gram-Negative Bacteria” (Molecules, 2021)
“And” between values parts separate entries of the source, which are not always exact repeats. Equal entries are not always repeated. Where two headings read alike, the source gives them in different places. Square brackets hold non-standard residues; d marks the D form. Peptide text beside a SMILES is read from it.

Key:
E. coli BW25113 [1] = assay: Checkerboard assay with erythromycin; format: cell-based, Escherichia coli; conditions: for MSCery: erythromycin concentration in the combination with the synergist giving the lowest FICi, E. coli BW25113; for MIC of the peptide (MICpep): synergist alone, from checkerboard with erythromycin; for MIC of the peptide (MICpep) / MSCpeptide, minimum synergistic concentration: E. coli BW25113, LB, 20 h 37 °C; for MSCpeptide, minimum synergistic concentration: synergist concentration in the combination with erythromycin giving the lowest FICi, OD600; for FICi: with erythromycin vs E. coli BW25113, synergy defined as FICi ≤ 0.5
Method: (§1) All peptides were screened for antimicrobial activity against E. coli BW25113, E. coli ATCC25922, and E. coli W3110. A select group of the peptides was further tested against E. coli mcr-1, E. coli EQASmcr-1 (EQAS 2016 412016126), E. coli EQASmcr-2 (EQAS 2016 KP37), E. coli EQASmcr-3 (EQAS 2017 2013-SQ352), K. pneumoniae ATCC13883, P. aeruginosa ATCC27853, and A. baumannii ATCC17978. The antimicrobial assay was performed according to CLSI guidelines. Bacteria were plated out directly from their glycerol stocks on blood agar plates, incubated overnight at 37 °C, and then kept in the fridge. The blood agar plates were only used for 2 weeks and then replaced.
(§2) One colony from a blood agar plates was inoculated in Lysogeny Broth (LB) at 37 °C until a 0.5 optical density at 600 nm (OD600) was reached (compared to the sterility control of LB). The bacterial suspension was diluted in fresh LB to 2.0 × 10^6 CFU/mL. The serial dilutions were prepared in polypropylene microtiter plates: a stock of the test compounds was prepared with a 2x final concentration in LB. Moreover, 100 µL of the stock was added to the wells of the top row of which 50 µL was used for the serial dilution. The bottom row of each plate was used as the positive (50 µL of LB) and negative controls (100 µL of LB) (6 wells each). Furthermore, 50 µL of the 2.0 × 10^6 CFU/mL bacterial stock was added to each well except for the negative controls, adding up to a total volume of 100 µL per well. The plates were sealed with a breathable seal and incubated for 20 h at 37 °C and 600 rpm.
(§3) Two 96-well plates were required per compound. A serial dilution of the compound was performed on two plates from row A–G using with LB as medium. Row H was filled with 25 µL medium. On a separate plate a negative control (8 wells, 100 μL medium) was prepared. For all concentrations of antibiotic a specific stock was prepared. 25 µL medium was added to the 0 µg/mL antibiotic columns (plate I, column 1–3). Of each antibiotic stock 25 µL was added to three columns to obtain triplicates for every condition. Both plates contained 50 µL in each well to which 50 µL bacterial stock was added (see the protocol of the MIC assays) and the plates were sealed. After incubation for 20 h at 37 °C while shaking, the breathable seals were removed and the density of the bacterial suspensions measured at 600 nm (OD600) using a Tecan Spark plate reader. The OD600 values were transformed to a 2D gradient with the negative control as minimum and the positive control (wells G1, G2, and G3) as maximum in excel. The FICi was calculated using Equation (1) with a FICi ≤ 0.5 indicating synergy. FICi = (MSCa/MICa) + (MSCb/MICb),(1)
(§4) Calculation of the FICi: MSCa = concentration of the […] in combination with the antibiotic that results in the lowest FICi. MICa = MIC of the antibiotic without synergist (row G). MSCb = concentration of the synergist in combination with the antibiotic that results in the lowest FICi. MICb = MIC of the synergist itself (Column 1–3, plate I).

E. coli BW25113 [2] = format: cell-based, Escherichia coli; conditions: for FICi: BW25113, 20 h; for MICpep: synergist alone, E. coli BW25113, from checkerboard with rifampicin; for MSCpep: synergist concentration in the combination with rifampicin giving the lowest FICi; for MSCpep / MSCrif: E. coli BW25113; for MSCrif: rifampicin concentration in the combination giving the lowest FICi
Method: as §1, §2, §3, §4

[3] = system: defibrinated sheep blood (red blood cells); assay: Hemolysis assay; format: cell-based; conditions: 200 µg/mL compound, 20 h incubation at 37 °C with defibrinated sheep blood, PBS 0.002% Tween20, absorbance 415 nm, relative to 0.1% Triton X-100; n=3 technical replicates
Method: Defibrinated sheep blood (Thermo Fisher Scientific) and a phosphate-buffered saline (PBS) buffer containing 0.002% Tween20 were used in this assay. The red blood cells were washed with buffer followed by centrifugation (400 g for 15 min at 4 °C). The red blood cells were then normalized to obtain a positive control read-out around 2.5 at 415 nm to stay in the linear range with the maximum sensitivity. A serial dilution of the compounds (200–1.56 µg/mL, 75 µL) was prepared in a 96-well plate. Each plate contained a positive control (0.1% Triton X-100 final concentration, 75 µL) and the negative control (buffer, 75 µL). After addition of normalized blood cells (75 µL), the plates were incubated for 20 h at 37 °C at 500 rpm. The plates were centrifuged (800× g for 5 min at room temperature). For the next step flat-bottom polystyrene plates were prepared with 100 µL buffer in each well. Aliquots of 25 µL supernatant from the centrifuged plates were then transferred to their respective wells in the flat-bottom plate. Absorbance values where measured at 415 nm and corrected for background (negative control) and transformed to a percentage hemolysis relative to the positive control.

Row | SMILES | MSCery (E. coli BW25113 [1]) [µg/mL] | MIC of the peptide (MICpep) (E. coli BW25113 [1]) [µg/mL] | MSCpeptide, minimum synergistic concentration (E. coli BW25113 [1]) [µg/mL] | FICi (E. coli BW25113 [2]) | MICpep (E. coli BW25113 [2]) [µg/mL] | MSCpep (E. coli BW25113 [2]) [µg/mL] | Hemolysis [3] | MSCrif (E. coli BW25113 [2]) [µg/mL] | FICi (E. coli BW25113 [1])
1 | CC[C@H](C)[C@H](NC(=O)[C@@H](NC(=O)[C@H](CCCCN)NC(=O)[C@H](CCC(N)=O)NC(=O)[C@@H](NC(=O)[C@H](Cc1c[nH]c2ccccc12)NC(=O)[C@H](CCCCN)NC(=O)[C@H](CCCCN)NC(=O)[C@H](CC(C)C)NC(=O)[C@H](CCCNC(=N)N)NC(=O)[C@H](Cc1ccccc1)NC(=O)[C@H](C)N)[C@@H](C)CC)C(C)C)C(N)=O [peptide 8] (H-AFRLKKWIQKVI-NH2) | 12.5 | 12.5 | 1.563 | 0.1406 | 12.5 | 1.563 | 1.5% and 2% |  | 
2 | CC[C@@H](C)[C@@H](NC(=O)[C@H](NC(=O)[C@@H](CCCCN)NC(=O)[C@@H](CCC(N)=O)NC(=O)[C@H](NC(=O)[C@@H](Cc1c[nH]c2ccccc12)NC(=O)[C@@H](CCCCN)NC(=O)[C@@H](CCCCN)NC(=O)[C@@H](CC(C)C)NC(=O)[C@@H](CCCNC(=N)N)NC(=O)[C@@H](Cc1ccccc1)NC(=O)[C@H](N)C(C)C)[C@H](C)CC)C(C)C)C(N)=O [peptide 20] (H-[dV][dF][dR][dL][dK][dK][dW][dI][dQ][dK][dV][dI]-NH2) | 3.125 | 6.25 | 3.13 | 0.2813 | 12.5 | 3.125 | 3.2% and 3% | 0.25 | 
3 | CC[C@H](C)[C@H](N)C(=O)N[C@H](C(=O)N[C@@H](CCCCN)C(=O)N[C@@H](CCC(N)=O)C(=O)N[C@H](C(=O)N[C@@H](Cc1c[nH]c2ccccc12)C(=O)N[C@@H](CCCCN)C(=O)N[C@@H](CCCCN)C(=O)N[C@@H](CC(C)C)C(=O)N[C@@H](CCCNC(=N)N)C(=O)N[C@@H](Cc1ccccc1)C(=O)N[C@H](C(N)=O)C(C)C)[C@@H](C)CC)C(C)C [peptide 21] (H-IVKQIWKKLRFV-NH2) | 25 | > 200 | 50 | 0.3750 | > 200 | 50 | 2.2% and 2% | 2 | 0.2500
4 | CC[C@H](C)[C@H](NC(=O)[C@@H](NC(=O)[C@H](CCCCN)NC(=O)[C@H](CCC(N)=O)NC(=O)[C@H](C)NC(=O)[C@H](Cc1c[nH]c2ccccc12)NC(=O)[C@H](CCCCN)NC(=O)[C@H](CCCCN)NC(=O)[C@H](CC(C)C)NC(=O)[C@H](CCCNC(=N)N)NC(=O)[C@H](Cc1ccccc1)NC(=O)[C@@H](N)C(C)C)C(C)C)C(N)=O [compound 15] (H-VFRLKKWAQKVI-NH2) | 12.5 | 100 | 12.5 | 0.0938 | 100 | 6.25 | 0.9% and 1% | 0.25 | 
5 | CC[C@H](C)[C@H](NC(=O)[C@@H](NC(=O)[C@H](CCCCN)NC(=O)[C@H](CCC(N)=O)NC(=O)[C@@H](NC(=O)[C@H](Cc1c[nH]c2ccccc12)NC(=O)[C@H](CCCCN)NC(=O)[C@H](CCCCN)NC(=O)[C@H](C)NC(=O)[C@H](CCCNC(=N)N)NC(=O)[C@H](Cc1ccccc1)NC(=O)[C@@H](N)C(C)C)[C@@H](C)CC)C(C)C)C(N)=O [compound 11] (H-VFRAKKWIQKVI-NH2) | 12.5 | 200 | 25 |  | 25 | 1.563 | 1.1% and 1% | 0.25 | 
6 | CC[C@H](C)[C@H](NC(=O)[C@@H](NC(=O)[C@H](CCCCN)NC(=O)[C@H](CCC(N)=O)NC(=O)[C@@H](NC(=O)[C@H](Cc1c[nH]c2ccccc12)NC(=O)[C@H](CCCCN)NC(=O)[C@H](CCCCN)NC(=O)[C@H](CC(C)C)NC(=O)[C@H](CCCNC(=N)N)NC(=O)[C@H](Cc1ccccc1)NC(=O)[C@@H](NC(C)=O)C(C)C)[C@@H](C)CC)C(C)C)C(N)=O [peptide 7] (Ac-VFRLKKWIQKVI-NH2) | 3.125 | 50 | 12.5 |  | 50 | 12.5 | 4.6% and 5% |  | 
7 | CC[C@H](C)[C@H](NC(=O)[C@H](C)NC(=O)[C@H](CCCCN)NC(=O)[C@H](CCC(N)=O)NC(=O)[C@@H](NC(=O)[C@H](Cc1c[nH]c2ccccc12)NC(=O)[C@H](CCCCN)NC(=O)[C@H](CCCCN)NC(=O)[C@H](CC(C)C)NC(=O)[C@H](CCCNC(=N)N)NC(=O)[C@H](Cc1ccccc1)NC(=O)[C@@H](N)C(C)C)[C@@H](C)CC)C(N)=O [compound 18] (H-VFRLKKWIQKAI-NH2) | 12.5 | 50 | 3.125 | 0.0781 | 50 | 3.125 | 2.3% and 2% |  | 0.1250
8 | CC[C@@H](C)[C@@H](N)C(=O)N[C@@H](C(=O)N[C@H](CCCCN)C(=O)N[C@H](CCC(N)=O)C(=O)N[C@@H](C(=O)N[C@H](Cc1c[nH]c2ccccc12)C(=O)N[C@H](CCCCN)C(=O)N[C@H](CCCCN)C(=O)N[C@H](CC(C)C)C(=O)N[C@H](CCCNC(=N)N)C(=O)N[C@H](Cc1ccccc1)C(=O)N[C@@H](C(N)=O)C(C)C)[C@H](C)CC)C(C)C [peptide 22] (H-[dI][dV][dK][dQ][dI][dW][dK][dK][dL][dR][dF][dV]-NH2) | 6.25 | 100 | 6.25 | 0.1406 | 50 | 6.25 | 3.2% and 3% | 0.25 | 
9 | CC[C@H](C)[C@H](NC(=O)[C@@H](NC(=O)[C@H](CCCCN)NC(=O)[C@H](CCC(N)=O)NC(=O)[C@@H](NC(=O)[C@H](Cc1c[nH]c2ccccc12)NC(=O)[C@H](CCCCN)NC(=O)[C@H](CCCCN)NC(=O)[C@H](CC(C)C)NC(=O)[C@H](CCCNC(=N)N)NC(=O)[C@H](Cc1ccccc1)NC(=O)[C@@H](N)C(C)C)[C@@H](C)CC)C(C)C)C(=O)O [peptide 1] (H-VFRLKKWIQKVI-OH) | 12.5 | 200 | 25 |  | 200 | 12.5 | 0.1% and 0% | 0.25 | 
